Values joined by “and” are separate entries in the source; they are usually repeats but may differ in a detail not shown here. Equal values may be shown once. “Also recorded” adds a separate entry of the source.
Experiments:
psoriasis patients = conditions: at week 12; cited from earlier work
male DBA-1 mice = assay: Established collagen induced arthritis (CIA), macroscopic and histological scores; format: in vivo, mouse; conditions: Enbrel 5 mg/kg
Experimental: Bovine type II collagen (CII) (RUNMC in house production, batch 03-04-08) at a concentration of 2 mg/ml in acetic acid 0.05M was emulsified in equal volumes of Freund's complete adjuvant (2 mg/ml of Mycobacterium tuberculosis strain H37Ra; Difco, Detroit, Mich.).
On day 0, 10-12 week old male DBA-1 mice (Janvier Elevage, France) (n=95) were immunized i.d. at the base of the tail with 100 μg of bovine CII. On day 21, mice received an intraperitoneal booster injection of 50 μg of CII dissolved in phosphate buffered saline (PBS), and the onset of arthritis occurred a few days after this booster.
Joint inflammation in each paw was scored visually, using a scale of 0-2 per paw with a maximal score of 8 per animal: 0=non inflamed, 1=mild inflammation, 1.5=marked inflammation, and 2=severe inflammation. Scoring was performed three times a week.
Treatment was started in established CIA early after onset of disease (i.e. therapeutic regimen), when the macroscopic scores per animal were between 0.25 and 1.25 (on a scale of 0-8). […] Histology was scored for inflammation and destruction on an arbitrary scale of 0-3, for five different parameters: […]
Joints were fixed for at least 4 days in 4% formaldehyde, decalcified in 5% formic acid, and subsequently dehydrated and embedded in paraffin. […] The severity of inflammation in the joints was scored on a scale of 0-3 (0=no cells, 1=mild cellularity, 2=moderate cellularity, and 3=maximal cellularity). […] Depletion of PG was determined using an arbitrary scale of 0-3, ranging from normal, fully stained cartilage to destained cartilage, fully depleted of PGs. Chondrocyte death was scored on a scale of 0-3 ranging from no loss of chondrocyte nuclei to complete empty cartilage surface. The degree of cartilage surface erosion was scored on a scale of 0-3, ranging from no damage to complete loss of articular cartilage. […] Histopathological changes in the joint were scored on three semiserial sections of the joint spaced 70 μm apart. […]

[1] = system: healthy human skin transplanted onto beige-SCID mice; assay: Humanized psoriasis model, human skin xenografts on beige-SCID mice; format: in vivo, mouse; conditions: for proliferation index (% Ki-67 positive cells): vs vehicle; for Healthy Skin, number of grafts / Psoriasiform Skin, number of affected grafts / Partial Psoriasiform With Tendency Towards Healthy skin, number of grafts: histological evaluation, day 28; for epidermal thickness: vs vehicle treated group
Source text: In this model, psoriasis is induced in xenotransplants of healthy human skin transplanted onto beige severe combined immunodeficiency (SCID) mice followed by intradermal (i.d.) injection of IL-2 enriched Peripheral Blood Mononuclear Cells (PBMCs) isolated from blood of psoriasis patients (Nickoloff, 1995; Wrone-Smith, 1996 Gilhar et al., 2002, 2006, 2011). The activity of these compounds was compared to that of Enbrel, a TNF inhibitor which is an approved biological drug for treatment of psoriasis. As a control for model robustness, we used dexamethasone, a steroid with suppressive effects on inflammatory cytokines and chemokines such as TNF-alpha and interferon-gamma which cause severe psoriasis. All treatments were administered intradermally, except for dexamethasone which was given topically.
2.2. Study Protocol A) Healthy human skin pieces with a width of 0.4 mm and surface area of 1.5×1.5 cm were provided from residual skin of routine plastic surgery procedures from the Plastic Surgery Department of the Rambam Medical Center, Israel. In addition, 20 mL blood samples were taken from psoriatic patients. B) Seventy (70) beige-severe combined immunodeficient mice (SCID) (weight ˜20-25 g) were included in this study. Normal healthy human donor skin was transplanted onto the beige-SCID mice as previously described (Nickoloff et al., 1995; Wrone-Smith, 1996; Gilhar et al., 2002, 2006, 2011; Kalish et al., 2009) and the mice were divided into 7 groups. C) Peripheral Blood Mononuclear Cells (PBMCs) isolated from psoriatic patients' blood were cultured in the presence of IL-2 [Prospec, 100 U/mL of RPMI 1640 media, 10% human AB serum (Sigma, St. Louis, Mo.), 1% glutamine, 1% antibiotics (media components; Biological Industries, Kibbutz Beit Haemeck, Israel)] for 14 days, as previously described (Gilhar et al, 2002). D) Four weeks following engraftment, each mouse was injected intra-dermally (i.d.) into the grafted skin lesion, with 1×10^7 activated allogeneic enriched PBMCs from psoriatic patients (FIG. 20). Cells from different psoriasis patients were equally distributed between treatment groups so that each patient is represented in each treatment group. E) On the day of PBMCs injection into the skin grafts, mice were divided randomly into treatment groups (n=9-10 mice per group) and administration of all drugs started (FIG. 20). All tested compounds including the vehicle were given intradermally (intralesional), three times a week, except for dexamethasone which was given topically for 14 consecutive days (Table 3).
F) Twenty eight days after starting the injections and treatment, skin was harvested (FIG. 20). Grafts were analyzed for the following psoriatic parameters by histology: epidermal thickening (acanthosis), suprapapillary epidermal thinning (papillomatosis), hyperkeratosis, parakeratosis, orthokeratosis, agranulosis-hypogranulosis, appearance of neutrophils in the upper spinous layer or in the corneal cell layer—Munro microabscess, regular elongation of rete ridges, angiogenesis, edema and dilated tortuous blood vessels in the dermal papilla and mononuclear cell infiltrate in the papillary dermis. Epidermal thickness was measured as detailed below, and HLA-DR, ICAM-1, Ki-67 and immune infiltrates (anti-CD3 stain) were evaluated by immunohistochemistry (IHC).
The entire skin graft was excised and placed in 10% formal saline overnight. Then, the specimens were place in 70% ethanol and were embedded according to the standard H&E protocol. Histological assessment of the skin grafts was performed by light microscopy and evaluated by two blinded observers [the second observer evaluated random slides (about 25% of all slides) to compare the data obtained by the first observer. […] Epidermal thickness was determined with an ocular micrometer at a minimum of 50 points along the epidermis selected to represent points of maximal and minimal thickness.
Representative grafts were allocated for IHC analysis. […]

MS patients' PBMCs = assay: Proliferation and cytokine secretion of PBMCs from MS patients; format: cell-based, human
Experimental: PBMCs were taken from eight MS patients with diagnosed relapsing-remitting disease who have experienced a relapse 1-2 days prior to blood drawing.
PBMCs were plated in a flat-bottom 96-well plate at 1e6 cells/well. The cells were cultured in the presence of anti-CD3 (0.5 ug/ml), MS-specific peptide MBP85-96 (10 ug/ml), or tetanus toxoid peptide TT830-843 (10 ug/ml). C1ORF32 ECD-Fc (SEQ ID NO: 43) or Control Ig were added to the cuture at the indicated concentrations. Two replicate plates were set to study for the effect of C1ORF32 ECD-Fc (SEQ ID NO: 43) on proliferation and on pro-inflammatory and anti-inflammatory cytokines secretion. To test for proliferation, the cultures were pulsed on day +1 of culture with 1uCi of tritiated thymidine and then harvested 3 days later on day +4 of culture. For cytokine analysis, super natantes from a replicate cultures were collected on day +4 of culture and tested using Millipore multiplex assay.

[2] = system: TcK and macrophages co-cultures; assay: TcK:macrophage co-culture cytokine secretion, healthy volunteers; format: cell-based, human; conditions: buffy coats of healthy volunteers
Experimental: • Purified CD4+ cells (2×10^6 cells/ml) are activated for 6 days in complete medium containing IL-15 (100 ng/ml), IL-6 (100 ng/ml) and TNFa (25 ng/ml).
TcKs are added to macrophage culture following removal of existing culture media at a ratio of 4:1 (5×10^4 cells/well/CD4^+ T cells plus 2×10^5 cells/well CD14^+ Macrophages). C1ORF32 ECD-Fc (SEQ ID NO:43) or Control IgG are added at 1, 3, 10, 30 μg/ml. For additional controls co-cultures are added with vehicle or with medium only (Wennink et al., 2012).
After 24 hrs of culture, cytokines (IL-10, IFN-α, IL-6, IL-12, RANTES, IL-13, IL-15, IL-17, MIP-1α, GM-CSF, IFNγ, TNFα, IL-1RA, IL-7, IL-1B, eotaxin, IL-2 IL-4 and IL-2R) are analyzed using ELISA and/or Luminex.
Co-culture of TcK with autologeuos ex-vivo differentiated macrophages mimics one of the crucial pathways mediating synovial macrophage activation in RA thus serving as a translational tool for evaluating the therapeutic potential of drug candidates. Therefore the effect of C1ORF32 ECD-Fc (SEQ ID NO:43) was tested on the secretion of a range of pro-inflammatory and anti-inflammatory cytokines in such co-cultures. Two studies were carried out, one in which buffy coats from healthy volunteers was used and another study in which the responses of RA patients blood cells responses were compared to that of healthy voluntiers in which blood was used rather than buffy coats.

[3] = system: synovial-like T-cell - macrophage co-cultures; assay: Synovial-like T-cell - macrophage co-cultures from RA patients not responding to TNF blockers, TNFa secretion; format: cell-based, human
Source text: The therapeutic potential of C1ORF32-ECD-FC (SEQ ID #43) for treating RA was studied in co-cultures of activated T cells and macrophages that were modified to mimic the deleterious interaction of these cells in RA synovium. This interaction drives the secretion of pro-inflammatory cytokines that play a major role in the pathology of RA, leading to progressive joint inflammation and to joint destruction. Thus, these co-cultures provide a translational tool to evaluate the effect of potential drugs for treatment of RA (Wenink et al., Ann Rheum Dis 2012; 71:1 80-83).
Purified T cells and myeloid cells from blood of RA patients that fail to respond to treatment with TNF blockers were activated for 6 days with TNFa, IL-6 and IL-15 and co-cultures with Monocytes derived macrophages that were generated by activation of CD14+ monocytes with M-CSF for 6 days.
The amounts were administered as follows: FIG. 33: 30microg/ml of each protein; FIG. 34: 3, 10, 30microg/ml of each protein as shown.

In the case of Enbrel, the “psoriasis patients achieving PASI 75” value (psoriasis patients) is listed as “Forty nine”, the “bone erosions, histology” value (male DBA-1 mice) is listed as “significant reduction” and the “proliferation index (% Ki-67 positive cells)” value ([1]; IHC) is listed as “trend of decrease”. For the same compound, the “Healthy Skin, number of grafts” value [1] was 3/9, the “Psoriasiform Skin, number of affected grafts” value (shortened to “Psoriasiform Skin, number”) [1] was 6/9 and the epidermal thickness [1] was “no substantial effect; also recorded: no significant reduction”.

For `C[C@@H]1C[C@H]2[C@@H]3CCC4=CC(=O)C=C[C@]4(C)[C@@]3(F)[C@@H](O)C[C@]2(C)[C@@]1(O)C(=O)CO` [dexamethasone], the “Healthy Skin, number of grafts” value [1] was 7/10, the “Partial Psoriasiform With Tendency Towards Healthy skin, number of grafts” value [1] was 1 and the “Psoriasiform Skin, number” value [1] was 2 and 2/10. For the same compound, the “Partial Psoriasiform With Tendency Towards Healthy skin, number of grafts” value ([1]; listed as Dexa) was 1/10, the “Psoriasiform Skin, number” value ([1]; listed as Dexa) was 2/10 and the “grafts with moderate lymphocytic infiltration” value ([1]; mouse, in vivo) was 1/10.

In the case of “C1ORF32 ECD-Fc (SEQ ID NO: 43): human-human fusion protein: human C1ORF32 ECD fused to human immunoglobulin Fc (SEQ ID NO:43)”, the “proliferation, secretion of IFNg, IL-17 and TNFa” value (MS patients' PBMCs; absence of activation) is reported as “no effect”, the “IL-10, IL-4, TGFb and IL-6” value (MS patients' PBMCs; absence of activation, in some of the donors) is reported as “elevation” and the “IL-4, IL-10, TGFb and IL-6 secretion” value (MS patients' PBMCs; activated ex-vivo with MBP85-96) is reported as “increase”. The “secretion of TNFa, RANTES, MIP-1a, GM-CSF and IL-5” value [2] was “inhibited”, the TNFa secretion ([3]; Example 20, 30 microg/ml) was “decreased the secretion of TNFα” and the “TNFa secretion in one of the donors” value ([3]; Example 20, 30 microg/ml) was “inhibited TNFα secretion”. For the same compound, the TNFa secretion ([3]; Example 21, 3, 10, 30 microg/ml) was “decreased the secretion of TNFa; also recorded: inhibition of TNFa secretion in a dose dependent manner”, the “expression of HLA-DR, ICAM-1 and Ki-67” value ([1]; IHC) was “decreased expression” and the “proliferation index (% Ki-67 positive cells)” value ([1]; IHC) was “trend towards decrease”. For the same compound, the “proliferation index (% Ki-67 positive cells)” value ([1]; IHC, listed as C1ORF ECD-Fc (SEQ ID NO:43)) was “most pronounced reduction”, the “Healthy Skin, number of grafts” value [1] was 5/9 and the “Psoriasiform Skin, number” value [1] was 4/9. The “cases in which disease symptoms were eliminated” value ([1]; summary in detailed description) was “about a third of the cases” and the epidermal thickness ([1]; listed as C1ORF ECD-Fc (SEQ ID NO:43)) was “significant reduction”.
